Laboratory results from patent US12503473B2, “Triazolopyrimidine compounds and their use in treating cancer” (Dizal (Jiangsu) Pharmaceutical Co., Ltd., priority 2018, dated 2025).

Legend:
MCT4 [1] = target: T1, MCT4 (Homo sapiens, UniProt O15427); test: cell-based
T1 sequence (O15427 1-465): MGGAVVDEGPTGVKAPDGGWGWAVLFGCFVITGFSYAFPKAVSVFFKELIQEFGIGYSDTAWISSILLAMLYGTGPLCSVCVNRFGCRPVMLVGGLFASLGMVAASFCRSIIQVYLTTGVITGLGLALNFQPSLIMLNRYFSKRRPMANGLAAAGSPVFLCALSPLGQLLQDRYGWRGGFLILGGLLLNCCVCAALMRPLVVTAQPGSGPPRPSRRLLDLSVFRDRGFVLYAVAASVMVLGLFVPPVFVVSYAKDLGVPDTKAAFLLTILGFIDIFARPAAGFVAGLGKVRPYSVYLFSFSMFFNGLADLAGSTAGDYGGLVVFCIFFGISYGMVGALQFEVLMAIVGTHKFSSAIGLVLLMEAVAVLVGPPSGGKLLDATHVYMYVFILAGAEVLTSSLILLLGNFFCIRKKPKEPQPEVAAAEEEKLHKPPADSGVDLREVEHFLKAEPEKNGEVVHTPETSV
Procedure: Cells were loaded with the pH sensitive dye BCECFAM(Invitrogen #B11150) before being washed to remove excess dye and seeded into the assay plates—directly onto the test compound—at a density of 15,000 cells/well (NCI—H358) or 30,000 cells/well (K562), in 30 μl HBSS with 1 mM [final] […] Assay plates were lidded and spun in a plate centrifuge at 170 g for 1 minute. Plates were then wrapped in foil and incubated in the dark for 1 hour at room temperature.
Following incubation with test compound, 10 μl of 25 mM Sodium-L-Lactate (Sigma #L7022) made up in HBSS with 1 mM [final] […] This addition was performed directly on the FLIPR Tetra platform (Molecular Devices) as part of a real-time kinetic read protocol. […] A percentage change from base-line was calculated for each test well and values normalised to control wells—treated with either DMSO (maximum assay signal) or chemistry related to that described in this patent (minimum assay signal)—before fitting concentration response curves to determine an IC50 value.

MCT4 [2] = target: T1, MCT4; test: Assay (a): lactate efflux from SK-Br-3 cells (lactate in media, 4 h); type: cell-based; set-up: a natively glycolytic human breast adenocarcinoma line predominantly expressing MCT4; host or cells: SK-Br-3; details: mean of at least three repeats (Example 32, marked *, two repeats), read-out: MCT4 lactate efflux pIC50 (SKBR3) (converted)
Procedure: Assay plates were lidded and incubated for 4 hours at 37° C. and 5% CO2.

Work on `COc1cc(CN2CCN(C)CC2)ccc1-c1ncc(N2CC[C@@H](Cc3c(C)nc4nc(C)nn4c3C)C2)nc1C` [Example 31, (R)-6-((1-(5-(2-methoxy-4-((4-methylpiperazin-1-yl)methyl)phenyl)-6-methylpyrazin-2-yl)pyrrolidin-3-yl)methyl)-2,5,7-trimethyl-[1,2,4]triazolo[1,5-a]pyrimidine] yielded an IC50 (MCT4 [1]) of 50.1 nM and an IC50 (MCT4 [2]) of 3.16 nM.

For `Cc1nc2nc(C)c(C[C@@H]3CCN(c4cnc(-c5ccc(CN6CCCCC6)cc5)cn4)C3)c(C)n2n1` [Example 37, 2,5,7-trimethyl-6-[[(3R)-1-[5-[4-(1-piperidylmethyl)phenyl]pyrazin-2-yl]pyrrolidin-3-yl]methyl]-[1,2,4]triazolo[1,5-a]pyrimidine], the IC50 (MCT4 [1]) was 6.31 nM and the IC50 (MCT4 [2]) was 0.398 nM.

`Cc1nc2nc(C)c(C[C@@H]3CCN(c4cnc(-c5ccc(CN6CCOCC6)nc5)cn4)C3)c(C)n2n1` [Example 49, (R)-4-((5-(5-(3-((2,5,7-trimethyl-[1,2,4]triazolo[1,5-a]pyrimidin-6-yl)methyl)pyrrolidin-1-yl)pyrazin-2-yl)pyridin-2-yl)methyl)morpholine] was tested, and the IC50 (MCT4 [1]) was 7.94 nM and the IC50 (MCT4 [2]) was 0.631 nM.

For `Cc1nc2nc(C)c(C[C@@H]3CCN(c4cnc(-c5ccc(CN6CCN(S(C)(=O)=O)CC6)cc5)cn4)C3)c(C)n2n1` [Example 52, 2,5,7-trimethyl-6-({(3R)-1-[5-(4-{[4-(methylsulfonyl)piperazin-1-yl]methyl}phenyl)pyrazin-2-yl]pyrrolidin-3-yl}methyl)[1,2,4]triazolo[1,5-a]pyrimidine], the IC50 (MCT4 [1]) was 10 nM and the IC50 (MCT4 [2]) was 0.2 nM.

`Cc1nc2nc(C)c(C[C@@H]3CCN(c4cnc(-c5ccc(CN6CCN(C)CC6)cc5)nc4)C3)c(C)n2n1` [Example 20, (R)-2,5,7-trimethyl-6-((1-(2-(4-((4-methylpiperazin-1-yl)methyl)phenyl)pyrimidin-5-yl)pyrrolidin-3-yl)methyl)-[1,2,4]triazolo[1,5-a]pyrimidine] was tested, and the IC50 (MCT4 [1]) was 39.8 nM and the IC50 (MCT4 [2]) was 0.501 nM.

`Cc1nc2nc(C)c(O[C@@H]3CCN(c4cnc(-c5ccc(CN6CCOCC6)cc5)cn4)C3)c(C)n2n1` [Example 78, (R)-4-(4-(5-(3-((2,5,7-trimethyl-[1,2,4]triazolo[1,5-a]pyrimidin-6-yl)oxy)pyrrolidin-1-yl)pyrazin-2-yl)benzyl)morpholine] was tested, and the IC50 (MCT4 [1]) was 6.31 nM and the IC50 (MCT4 [2]) was 2.51 nM.

`Cc1nc2nc(C)c(C[C@@H]3CCN(c4ccc(-c5ccc(CN6CCN(C)CC6)cc5)nc4)C3)c(C)n2n1` [Example 8, (R)-2,5,7-trimethyl-6-((1-(6-(4-((4-methylpiperazin-1-yl)methyl)phenyl)pyridin-3-yl)pyrrolidin-3-yl)methyl)-[1,2,4]triazolo[1,5-a]pyrimidine] gave an IC50 (MCT4 [1]) of 25.1 nM and an IC50 (MCT4 [2]) of 0.631 nM.

`Cc1nc2nc(C)c(C[C@@H]3CCN(c4cnc(-c5ccc(CN6CCN(C)CC6)cc5)c(C)n4)C3)c(C)n2n1` [Example 54, (R)-2,5,7-trimethyl-6-((1-(6-methyl-5-(4-((4-methylpiperazin-1-yl)methyl)phenyl)pyrazin-2-yl)pyrrolidin-3-yl)methyl)-[1,2,4]triazolo[1,5-a]pyrimidine] gave an IC50 (MCT4 [1]) of 7.94 nM and an IC50 (MCT4 [2]) of 0.398 nM.

Work on `Cc1nc2nc(C)c(C[C@@H]3CCN(c4cnc(-c5ccc(CN6CCN(C)CC6)nc5)cn4)C3)c(C)n2n1` [Example 57, (R)-2,5,7-trimethyl-6-((1-(5-(6-((4-methylpiperazin-1-yl)methyl)pyridin-3-yl)pyrazin-2-yl)pyrrolidin-3-yl)methyl)-[1,2,4]triazolo[1,5-a]pyrimidine] yielded an IC50 (MCT4 [1]) of 126 nM and an IC50 (MCT4 [2]) of 3.98 nM.

Work on `Cc1nc2nc(C)c(C[C@@H]3CCN(c4ccc(-c5ccc(CN6CCN(C)CC6)cn5)cc4)C3)c(C)n2n1` [Example 27, (R)-2,5,7-trimethyl-6-((1-(4-(5-((4-methylpiperazin-1-yl)methyl)pyridin-2-yl)phenyl)pyrrolidin-3-yl)methyl)-[1,2,4]triazolo[1,5-a]pyrimidine] yielded an IC50 (MCT4 [1]) of 20 nM and an IC50 (MCT4 [2]) of 0.631 nM.

Work on `Cc1nc2nc(C)c(C[C@@H]3CCN(c4cnc(-c5ccc(CN6CCN(C)C[C@@H]6C)cc5)nc4)C3)c(C)n2n1` [Example 10, 6-(((R)-1-(2-(4-(((S)-2,4-dimethylpiperazin-1-yl)methyl)phenyl)pyrimidin-5-yl)pyrrolidin-3-yl)methyl)-2,5,7-trimethyl-[1,2,4]triazolo[1,5-a]pyrimidine] yielded an IC50 (MCT4 [1]) of 31.6 nM and an IC50 (MCT4 [2]) of 0.501 nM.

With `Cc1nc2nc(C)c(C[C@@H]3CCN(c4ccc(-c5ccc(CN6CCOCC6)cc5)nn4)C3)c(C)n2n1` [Example 61, (R)-4-(4-(6-(3-((2,5,7-trimethyl-[1,2,4]triazolo[1,5-a]pyrimidin-6-yl)methyl)pyrrolidin-1-yl)pyridazin-3-yl)benzyl)morpholine] the IC50 (MCT4 [1]) was 6.31 nM and the IC50 (MCT4 [2]) was 1 nM.

`COc1cc(CN2CCN(C)CC2)ccc1-c1cnc(N2CC[C@@H](Cc3c(C)nc4nc(C)nn4c3C)C2)cn1` [Example 43, (R)-6-((1-(5-(2-methoxy-4-((4-methylpiperazin-1-yl)methyl)phenyl)pyrazin-2-yl)pyrrolidin-3-yl)methyl)-2,5,7-trimethyl-[1,2,4]triazolo[1,5-a]pyrimidine] gave an IC50 (MCT4 [1]) of 20 nM and an IC50 (MCT4 [2]) of 0.631 nM.

Work on `Cc1nc2nc(C)c(C[C@@H]3CCN(c4ccc(-c5cnc(CN6CCN(C)CC6)cn5)cc4)C3)c(C)n2n1` [Example 21, (R)-2,5,7-trimethyl-6-((1-(4-(5-((4-methylpiperazin-1-yl)methyl)pyrazin-2-yl)phenyl)pyrrolidin-3-yl)methyl)-[1,2,4]triazolo[1,5-a]pyrimidine] yielded an IC50 (MCT4 [1]) of 20 nM and an IC50 (MCT4 [2]) of 1.26 nM.

In the case of `Cc1nc2nc(C)c(C[C@@H]3CCN(c4cnc(-c5ccc(CN6CCN(C)CC6)c(C)c5)cn4)C3)c(C)n2n1` [Example 56, (R)-2,5,7-trimethyl-6-((1-(5-(3-methyl-4-((4-methylpiperazin-1-yl)methyl)phenyl)pyrazin-2-yl)pyrrolidin-3-yl)methyl)-[1,2,4]triazolo[1,5-a]pyrimidine], the IC50 (MCT4 [1]) is reported as 20 nM and the IC50 (MCT4 [2]) is reported as 0.631 nM.

`Cc1nc2nc(C)c(C[C@@H]3CCN(c4cnc(-c5ccc(CN6CCN(CCO)CC6)cc5)nc4)C3)c(C)n2n1` [Example 16, (R)-2-(4-(4-(5-(3-((2,5,7-trimethyl-[1,2,4]triazolo[1,5-a]pyrimidin-6-yl)methyl)pyrrolidin-1-yl)pyrimidin-2-yl)benzyl)piperazin-1-yl)ethanol] gave an IC50 (MCT4 [1]) of 31.6 nM and an IC50 (MCT4 [2]) of 0.501 nM.

Compound `Cc1nc2nc(C)c(C[C@@H]3CCN(c4ccc(-c5ccc(CN6CCN(C)CC6)nc5)cn4)C3)c(C)n2n1` [Example 4, (R)-2,5,7-trimethyl-6-((1-(6′-((4-methylpiperazin-1-yl)methyl)-[3,3′-bipyridin]-6-yl)pyrrolidin-3-yl)methyl)-[1,2,4]triazolo[1,5-a]pyrimidine] has an IC50 (MCT4 [1]) of 39.8 nM and an IC50 (MCT4 [2]) of 0.631 nM.

With `Cc1nc2nc(C)c(C[C@@H]3CCN(c4cnc(-c5ccc(CN6CCN(C)[C@@H](C)C6)cc5)cn4)C3)c(C)n2n1` [Example 48, 6-(((R)-1-(5-(4-(((S)-3,4-dimethylpiperazin-1-yl)methyl)phenyl)pyrazin-2-yl)pyrrolidin-3-yl)methyl)-2,5,7-trimethyl-[1,2,4]triazolo[1,5-a]pyrimidine] the IC50 (MCT4 [1]) was 10 nM and the IC50 (MCT4 [2]) was 1.58 nM.

`Cc1nc2nc(C)c(C[C@@H]3CCN(c4cnc(-c5ccc(CN6CCN(C(=O)N(C)C)CC6)cc5)cn4)C3)c(C)n2n1` [Example 55, N,N-dimethyl-4-[4-(5-{(3R)-3-[(2,5,7-trimethyl[1,2,4]triazolo[1,5-a]pyrimidin-6-yl)methyl]pyrrolidin-1-yl}pyrazin-2-yl)benzyl]piperazine-1-carboxamide] was tested, and the IC50 (MCT4 [1]) was 10 nM and the IC50 (MCT4 [2]) was 0.251 nM.

Work on `Cc1nc2nc(C)c(C[C@@H]3CCN(c4ccc(-c5ccc(CN6CCOCC6)cn5)cc4)C3)c(C)n2n1` [Example 23, (R)-4-((6-(4-(3-((2,5,7-trimethyl-[1,2,4]triazolo[1,5-a]pyrimidin-6-yl)methyl)pyrrolidin-1-yl)phenyl)pyridin-3-yl)methyl)morpholine] yielded an IC50 (MCT4 [1]) of 6.31 nM and an IC50 (MCT4 [2]) of 0.398 nM.

For `Cc1nc2nc(C)c(C[C@@H]3CCN(c4cnc(-c5ccc(CN6CCOCC6)nc5)nc4)C3)c(C)n2n1` [Example 11, (R)-4-((5-(5-(3-((2,5,7-trimethyl-[1,2,4]triazolo[1,5-a]pyrimidin-6-yl)methyl)pyrrolidin-1-yl)pyrimidin-2-yl)pyridin-2-yl)methyl)morpholine], the IC50 (MCT4 [1]) was 7.94 nM and the IC50 (MCT4 [2]) was 0.316 nM.

For `Cc1nc2nc(C)c(O[C@@H]3CCN(c4cnc(-c5ccc(CN6CCN(C)CC6)cc5)cn4)C3)c(C)n2n1` [Example 77, (R)-2,5,7-trimethyl-6-((1-(5-(4-((4-methylpiperazin-1-yl)methyl)phenyl)pyrazin-2-yl)pyrrolidin-3-yl)oxy)-[1,2,4]triazolo[1,5-a]pyrimidine], the IC50 (MCT4 [1]) was 15.8 nM and the IC50 (MCT4 [2]) was 3.98 nM.

`CCN1CCN(Cc2ccc(-c3cnc(N4CC[C@@H](Cc5c(C)nc6nc(C)nn6c5C)C4)cn3)cc2)CC1` [Example 38, (R)-6-((1-(5-(4-((4-ethylpiperazin-1-yl)methyl)phenyl)pyrazin-2-yl)pyrrolidin-3-yl)methyl)-2,5,7-trimethyl-[1,2,4]triazolo[1,5-a]pyrimidine] gave an IC50 (MCT4 [1]) of 31.6 nM and an IC50 (MCT4 [2]) of 3.98 nM.
